Target: N-terminally His6-tagged recombinant kinase domain of the human c-Met (amino acids 960-1390) (Homo sapiens (Human), UniProt P08581)
Assay: c-Met Receptor Tyrosine Kinase Homogeneous Time-Resolved Fluorescence Assay (Alternative Format)
Type: biochemical
Conditions: c-Met kinase inhibition, HTRF format, ATP 10 μM
Description: c-Met Receptor Tyrosine Kinase Homogeneous Time-Resolved Fluorescence Assay (Alternative Format):
The N-terminally His6-tagged recombinant kinase domain of the human c-Met (amino acids 960-1390), expressed in insect cells (SF21) and purified by Ni-NTA affinity chromatography and consecutive size exclusion chromatography (Superdex 200), is used. Alternatively, commercially available c-Met (Millipore) can be used. As substrate for the kinase reaction, the biotinylated poly-Glu,Tyr (4:1) copolymer (#61GT0BLC, Cis Biointernational, Marcoule, France) is used.
For the assay, 50 nL of a 100-fold concentrated solution of the test compound in DMSO is pipetted into a black low-volume 384-well microtiter plate (Greiner Bio-One, Frickenhausen, Germany). […]
The resulting mixture is incubated for 1 h at 22° C. to allow the binding of the biotinylated phosphorylated peptide to the streptavidine-XLent and the PT66-Eu-chelate. Subsequently, the amount of phosphorylated substrate is evaluated by measurement of the resonance energy transfer from the PT66-Eu-chelate to the streptavidine-XLent. Therefore, the fluorescence emissions at 620 nm and 665 nm after excitation at 350 nm are measured in an HTRF reader, e.g. Rubystar (BMG Lab-technologies, Offenburg, Germany) or Viewlux (Perkin-Elmer). […]

Sequence of N-terminally His6-tagged recombinant kinase domain of the human c-Met (amino acids 960-1390) (P08581 960-1390): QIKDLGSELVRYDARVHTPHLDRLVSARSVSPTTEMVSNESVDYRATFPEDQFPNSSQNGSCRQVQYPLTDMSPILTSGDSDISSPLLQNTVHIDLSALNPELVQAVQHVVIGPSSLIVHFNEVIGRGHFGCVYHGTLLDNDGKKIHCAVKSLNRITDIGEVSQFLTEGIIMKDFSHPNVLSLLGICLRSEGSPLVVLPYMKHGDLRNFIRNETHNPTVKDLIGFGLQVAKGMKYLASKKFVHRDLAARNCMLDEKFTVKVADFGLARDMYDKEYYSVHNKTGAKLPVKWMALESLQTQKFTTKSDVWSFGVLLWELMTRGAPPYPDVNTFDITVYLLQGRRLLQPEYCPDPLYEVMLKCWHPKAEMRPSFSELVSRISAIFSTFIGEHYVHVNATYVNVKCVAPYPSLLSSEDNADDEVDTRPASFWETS

IC50: 1030 nM
SMILES: N#CC1=C(C(F)F)NC(C(F)F)=C(C#N)C1c1cc2c(N)nccc2o1 [Example 18]

Source: US8604028B2, “Furopyridinyl-substituted 1,4-dihydropyridine derivatives and methods of use thereof” (Bayer Intellectual Property GmbH, priority 2009, dated 2013)
